Test results reported in US7432397B2, “Imaging compounds” (Hammersmith Imanet Ltd., priority 2002, dated 2008).
Marks after values point to notes of the source that are not given here.

Test: Biodistribution of radioactivity in rat tissues after intravenous injection
Format: in vivo
Settings: for Radioactivity in Entorhinal cortex / Radioactivity in Fat / Radioactivity in Heart (ventricle) / Radioactivity in Hippocampus / Radioactivity in Hypothalamus / Radioactivity in Inferior collicull / Radioactivity in Kidney / Radioactivity in Large intestine / Radioactivity in Lge. intestine content / Radioactivity in Liver / Radioactivity in Lung / Radioactivity in Medulla with Pons / Radioactivity in Olfactory bulbs / Radioactivity in Olfactory tubercles / Radioactivity in Prefrontal cortex / Radioactivity in Skeletal muscle / Radioactivity in Skin / Radioactivity in Sm. intestine content / Radioactivity in Small intestine / Radioactivity in Somatosensory cortex / Radioactivity in Spleen / Radioactivity in Stomach / Radioactivity in Striata / Radioactivity in Superior collicull / Radioactivity in Testis / Radioactivity in Thalamus / Radioactivity in Urine / Radioactivity in Visual cortex / Radioactivity in Plasma / Radioactivity in Whole blood / Radioactivity in Cerebellum: i.v.; for Radioactivity in Plasma / Radioactivity in Whole blood: composite curve of 9 rats
Description: Sixteen adult male Sprague-Dawley rats (body weight 250-320 g: mean±SD=288±25 g) were used in 5 separate experiments. Each rat was injected with ˜13 MBq Compound 1, at a specific activity of […], via a previously catheterised tail vein. The associated stable compound was 0.5±0.2 nmol/kg. Discrete samples of arterial blood were collected from 9 of the rats via a previously catheterised tail artery.
Tissues were sampled post-mortem using an established protocol, as described in Hirani et al, Synapse 42:164-176 (2001). The radioactivity concentration data obtained at 12 times up to 90 min after radioligand injection were normalised for both amount injected and body weight, giving:—‘uptake units’=(cpm/g tissue)/(injected cpm/g body weight).

[1] = period 5 to 90 min after intravenous injection

CSc1cccc(N([11CH3])C(=N)Nc2cc(SC)ccc2Cl)c1 [Compound 1, (N-(2-chloro-5-(methylthio)phenyl)-N′-(3-methylthio)phenyl)-N′-[N-methyl-^11C]-methylguanidine]
Radioactivity in Entorhinal cortex (30 min): 1.31 Uptake Units | Radioactivity in Fat (30 min): 0.71 Uptake Units | Radioactivity in Heart (ventricle) (30 min): 0.99 Uptake Units | Radioactivity in Hippocampus (30 min): 1.32 Uptake Units | Radioactivity in Hypothalamus (30 min): 1.22 Uptake Units | Radioactivity in Inferior collicull (30 min): 1.16 Uptake Units | Radioactivity in Kidney (30 min): 2.85 Uptake Units | Radioactivity in Large intestine (30 min): 1.11 Uptake Units | Radioactivity in Lge. intestine content (30 min): 0.36 Uptake Units | Radioactivity in Liver (30 min): 7.84 Uptake Units | Radioactivity in Lung (30 min): 7.48 Uptake Units | Radioactivity in Medulla with Pons (30 min): 1.26 Uptake Units | Radioactivity in Olfactory bulbs (30 min): 1.10 Uptake Units | Radioactivity in Olfactory tubercles (30 min): 1.24 Uptake Units | Radioactivity in Prefrontal cortex (30 min): 1.51 Uptake Units | Radioactivity in Skeletal muscle (30 min): 0.68 Uptake Units | Radioactivity in Skin (30 min): 0.75 Uptake Units | Radioactivity in Sm. intestine content (30 min): 7.14 Uptake Units | Radioactivity in Small intestine (30 min): 2.30 Uptake Units | Radioactivity in Somatosensory cortex (30 min): 1.37 Uptake Units | Radioactivity in Spleen (30 min): 4.75 Uptake Units | Radioactivity in Stomach (30 min): 1.07 Uptake Units | Radioactivity in Striata (30 min): 1.32 Uptake Units | Radioactivity in Superior collicull (30 min): 1.19 Uptake Units | Radioactivity in Testis (30 min): 0.76 Uptake Units | Radioactivity in Thalamus (30 min): 1.43 Uptake Units | Radioactivity in Urine (30 min): 37.5 Uptake Units | Radioactivity in Visual cortex (30 min): 1.55 Uptake Units | Radioactivity in Plasma (30 min): 0.18 Uptake Units | Radioactivity in Whole blood (30 min): 0.19 Uptake Units | Radioactivity in Cerebellum (40 min): 0.62 Uptake Units | Radioactivity in Entorhinal cortex (40 min): 0.85 Uptake Units | Radioactivity in Fat (40 min): 0.45 Uptake Units | Radioactivity in Heart (ventricle) (40 min): 0.63 Uptake Units | Radioactivity in Hippocampus (40 min): 0.86 Uptake Units | Radioactivity in Hypothalamus (40 min): 0.76 Uptake Units | Radioactivity in Inferior collicull (40 min): 0.64 Uptake Units | Radioactivity in Kidney (40 min): 1.79 Uptake Units | Radioactivity in Large intestine (40 min): 0.66 Uptake Units | Radioactivity in Lge. intestine content (40 min): 0.23 Uptake Units | Radioactivity in Liver (40 min): 5.76 Uptake Units | Radioactivity in Lung (40 min): 3.99 Uptake Units | Radioactivity in Medulla with Pons (40 min): 0.80 Uptake Units | Radioactivity in Olfactory bulbs (40 min): 0.64 Uptake Units | Radioactivity in Olfactory tubercles (40 min): 0.72 Uptake Units | Radioactivity in Prefrontal cortex (40 min): 0.93 Uptake Units | Radioactivity in Skeletal muscle (40 min): 0.61 Uptake Units | Radioactivity in Skin (40 min): 0.39 Uptake Units | Radioactivity in Sm. intestine content (40 min): 3.68 Uptake Units | Radioactivity in Small intestine (40 min): 1.09 Uptake Units | Radioactivity in Somatosensory cortex (40 min): 0.88 Uptake Units | Radioactivity in Spleen (40 min): 2.83 Uptake Units | Radioactivity in Stomach (40 min): 0.45 Uptake Units | Radioactivity in Striata (40 min): 0.84 Uptake Units | Radioactivity in Superior collicull (40 min): 0.65 Uptake Units | Radioactivity in Testis (40 min): 0.74 Uptake Units | Radioactivity in Thalamus (40 min): 0.92 Uptake Units | Radioactivity in Urine (40 min): 27.5 Uptake Units | Radioactivity in Visual cortex (40 min): 0.89 Uptake Units | Radioactivity in Plasma (40 min): 0.16 Uptake Units | Radioactivity in Whole blood (40 min): 0.16 Uptake Units | Radioactivity in Cerebellum (50 min): 0.55 Uptake Units | Radioactivity in Entorhinal cortex (50 min): 0.75 Uptake Units | Radioactivity in Fat (50 min): 0.49 Uptake Units | Radioactivity in Heart (ventricle) (50 min): 0.50 Uptake Units | Radioactivity in Hippocampus (50 min): 0.73 Uptake Units | Radioactivity in Hypothalamus (50 min): 0.61 Uptake Units | Radioactivity in Inferior collicull (50 min): 0.56 Uptake Units | Radioactivity in Kidney (50 min): 1.68 Uptake Units | Radioactivity in Large intestine (50 min): 0.76 Uptake Units | Radioactivity in Lge. intestine content (50 min): 0.35 Uptake Units | Radioactivity in Liver (50 min): 5.01 Uptake Units | Radioactivity in Lung (50 min): 5.30 Uptake Units | Radioactivity in Medulla with Pons (50 min): 0.70 Uptake Units | Radioactivity in Olfactory bulbs (50 min): 0.58 Uptake Units | Radioactivity in Olfactory tubercles (50 min): 0.65 Uptake Units | Radioactivity in Prefrontal cortex (50 min): 0.80 Uptake Units | Radioactivity in Skeletal muscle (50 min): 0.61 Uptake Units | Radioactivity in Skin (50 min): 0.52 Uptake Units | Radioactivity in Sm. intestine content (50 min): 4.03 Uptake Units | Radioactivity in Small intestine (50 min): 1.19 Uptake Units | Radioactivity in Somatosensory cortex (50 min): 0.71 Uptake Units | Radioactivity in Spleen (50 min): 2.95 Uptake Units | Radioactivity in Stomach (50 min): 0.32 Uptake Units | Radioactivity in Striata (50 min): 0.69 Uptake Units | Radioactivity in Superior collicull (50 min): 0.57 Uptake Units | Radioactivity in Testis (50 min): 0.69 Uptake Units | Radioactivity in Thalamus (50 min): 0.85 Uptake Units | Radioactivity in Urine (50 min): 84.5 Uptake Units | Radioactivity in Visual cortex (50 min): 0.72 Uptake Units | Radioactivity in Plasma (50 min): 0.17 Uptake Units | Radioactivity in Whole blood (50 min): 0.16 Uptake Units | Radioactivity in Cerebellum (60 min): 0.54* Uptake Units | Radioactivity in Entorhinal cortex (60 min): 0.73* Uptake Units | Radioactivity in Fat (60 min): 0.79* Uptake Units | Radioactivity in Heart (ventricle) (60 min): 0.59* Uptake Units | Radioactivity in Hippocampus (60 min): 0.76* Uptake Units | Radioactivity in Hypothalamus (60 min): 0.65* Uptake Units | Radioactivity in Inferior collicull (60 min): 0.54* Uptake Units | Radioactivity in Kidney (60 min): 1.87* Uptake Units | Radioactivity in Large intestine (60 min): 1.03* Uptake Units | Radioactivity in Lge. intestine content (60 min): 0.44* Uptake Units | Radioactivity in Liver (60 min): 5.73* Uptake Units | Radioactivity in Lung (60 min): 4.10* Uptake Units | Radioactivity in Medulla with Pons (60 min): 0.67* Uptake Units | Radioactivity in Olfactory bulbs (60 min): 0.55* Uptake Units | Radioactivity in Olfactory tubercles (60 min): 0.65* Uptake Units | Radioactivity in Prefrontal cortex (60 min): 0.77* Uptake Units | Radioactivity in Skeletal muscle (60 min): 0.49* Uptake Units | Radioactivity in Skin (60 min): 0.46* Uptake Units | Radioactivity in Sm. intestine content (60 min): 6.08* Uptake Units | Radioactivity in Small intestine (60 min): 1.29* Uptake Units | Radioactivity in Somatosensory cortex (60 min): 0.68* Uptake Units | Radioactivity in Spleen (60 min): 2.98* Uptake Units | Radioactivity in Stomach (60 min): 0.66* Uptake Units | Radioactivity in Striata (60 min): 0.67* Uptake Units | Radioactivity in Superior collicull (60 min): 0.54* Uptake Units | Radioactivity in Testis (60 min): 0.89* Uptake Units | Radioactivity in Thalamus (60 min): 0.74* Uptake Units | Radioactivity in Urine (60 min): 24.4* Uptake Units | Radioactivity in Visual cortex (60 min): 0.73* Uptake Units | Radioactivity in Plasma (60 min): 0.18 Uptake Units | Radioactivity in Whole blood (60 min): 0.17 Uptake Units | Radioactivity in Cerebellum (70 min): 0.38* Uptake Units | Radioactivity in Entorhinal cortex (70 min): 0.41 Uptake Units | Radioactivity in Fat (70 min): 0.55* Uptake Units | Radioactivity in Heart (ventricle) (70 min): 0.52* Uptake Units | Radioactivity in Hippocampus (70 min): 0.54* Uptake Units | Radioactivity in Hypothalamus (70 min): 0.33 Uptake Units | Radioactivity in Inferior collicull (70 min): 0.39 Uptake Units | Radioactivity in Kidney (70 min): 1.88* Uptake Units | Radioactivity in Large intestine (70 min): 0.76* Uptake Units | Radioactivity in Lge. intestine content (70 min): 0.57* Uptake Units | Radioactivity in Liver (70 min): 6.02* Uptake Units | Radioactivity in Lung (70 min): 4.62* Uptake Units | Radioactivity in Medulla with Pons (70 min): 0.39 Uptake Units | Radioactivity in Olfactory bulbs (70 min): 0.31 Uptake Units | Radioactivity in Olfactory tubercles (70 min): 0.36 Uptake Units | Radioactivity in Prefrontal cortex (70 min): 0.52* Uptake Units | Radioactivity in Skeletal muscle (70 min): 0.44* Uptake Units | Radioactivity in Skin (70 min): 0.47* Uptake Units | Radioactivity in Sm. intestine content (70 min): 5.41* Uptake Units | Radioactivity in Small intestine (70 min): 1.34* Uptake Units | Radioactivity in Somatosensory cortex (70 min): 0.38 Uptake Units | Radioactivity in Spleen (70 min): 2.97* Uptake Units | Radioactivity in Stomach (70 min): 0.96 Uptake Units | Radioactivity in Striata (70 min): 0.46* Uptake Units | Radioactivity in Superior collicull (70 min): 0.28 Uptake Units | Radioactivity in Testis (70 min): 0.74* Uptake Units | Radioactivity in Thalamus (70 min): 0.40 Uptake Units | Radioactivity in Urine (70 min): 16.9* Uptake Units | Radioactivity in Visual cortex (70 min): 0.38 Uptake Units | Radioactivity in Plasma (70 min): 0.20 Uptake Units | Radioactivity in Whole blood (70 min): 0.18 Uptake Units | Radioactivity in Cerebellum (90 min): 0.32* Uptake Units | Radioactivity in Entorhinal cortex (90 min): 0.38* Uptake Units | Radioactivity in Fat (90 min): 0.51* Uptake Units | Radioactivity in Heart (ventricle) (90 min): 0.40* Uptake Units | Radioactivity in Hippocampus (90 min): 0.46* Uptake Units | Radioactivity in Hypothalamus (90 min): 0.35* Uptake Units | Radioactivity in Inferior collicull (90 min): 0.36 Uptake Units | Radioactivity in Kidney (90 min): 1.50* Uptake Units | Radioactivity in Large intestine (90 min): 0.61* Uptake Units | Radioactivity in Lge. intestine content (90 min): 0.66* Uptake Units | Radioactivity in Liver (90 min): 3.85* Uptake Units | Radioactivity in Lung (90 min): 2.62* Uptake Units | Radioactivity in Medulla with Pons (90 min): 0.39* Uptake Units | Radioactivity in Olfactory bulbs (90 min): 0.28* Uptake Units | Radioactivity in Olfactory tubercles (90 min): 0.36* Uptake Units | Radioactivity in Prefrontal cortex (90 min): 0.45* Uptake Units | Radioactivity in Skeletal muscle (90 min): 0.35* Uptake Units | Radioactivity in Skin (90 min): 0.40* Uptake Units | Radioactivity in Sm. intestine content (90 min): 3.66* Uptake Units | Radioactivity in Small intestine (90 min): 0.93* Uptake Units | Radioactivity in Somatosensory cortex (90 min): 0.43* Uptake Units | Radioactivity in Spleen (90 min): 2.07* Uptake Units | Radioactivity in Stomach (90 min): 0.34* Uptake Units | Radioactivity in Striata (90 min): 0.41* Uptake Units | Radioactivity in Superior collicull (90 min): 0.23 Uptake Units | Radioactivity in Testis (90 min): 0.79* Uptake Units | Radioactivity in Thalamus (90 min): 0.42* Uptake Units | Radioactivity in Urine (90 min): 46.4* Uptake Units | Radioactivity in Visual cortex (90 min): 0.44* Uptake Units | Radioactivity in Plasma (90 min): 0.21 Uptake Units | Radioactivity in Whole blood (90 min): 0.18 Uptake Units | radioactivity level in plasma [1]: ~0.2 uptake units | radioactivity level in whole blood [1]: ~0.2 uptake units
